Source: patent US20240398784A1, “C-LINKED ISOQUINOLINE AMIDES AS LRRK2 INHIBITORS, PHARMACEUTICAL COMPOSITIONS, AND USES THEREOF” (Merck Sharp & Dohme LLC, priority 2021, published 2024)

Each molecule was assayed against LRRK2 G2019S (Homo sapiens, UniProt Q5S007, G2019S) (assay: LRRK2 G2019S Km ATP LanthaScreen assay). Conditions: read-out: LRRK2 pIC50 (converted).
LRRK2 G2019S, sequence (Q5S007 whole entry G2019S): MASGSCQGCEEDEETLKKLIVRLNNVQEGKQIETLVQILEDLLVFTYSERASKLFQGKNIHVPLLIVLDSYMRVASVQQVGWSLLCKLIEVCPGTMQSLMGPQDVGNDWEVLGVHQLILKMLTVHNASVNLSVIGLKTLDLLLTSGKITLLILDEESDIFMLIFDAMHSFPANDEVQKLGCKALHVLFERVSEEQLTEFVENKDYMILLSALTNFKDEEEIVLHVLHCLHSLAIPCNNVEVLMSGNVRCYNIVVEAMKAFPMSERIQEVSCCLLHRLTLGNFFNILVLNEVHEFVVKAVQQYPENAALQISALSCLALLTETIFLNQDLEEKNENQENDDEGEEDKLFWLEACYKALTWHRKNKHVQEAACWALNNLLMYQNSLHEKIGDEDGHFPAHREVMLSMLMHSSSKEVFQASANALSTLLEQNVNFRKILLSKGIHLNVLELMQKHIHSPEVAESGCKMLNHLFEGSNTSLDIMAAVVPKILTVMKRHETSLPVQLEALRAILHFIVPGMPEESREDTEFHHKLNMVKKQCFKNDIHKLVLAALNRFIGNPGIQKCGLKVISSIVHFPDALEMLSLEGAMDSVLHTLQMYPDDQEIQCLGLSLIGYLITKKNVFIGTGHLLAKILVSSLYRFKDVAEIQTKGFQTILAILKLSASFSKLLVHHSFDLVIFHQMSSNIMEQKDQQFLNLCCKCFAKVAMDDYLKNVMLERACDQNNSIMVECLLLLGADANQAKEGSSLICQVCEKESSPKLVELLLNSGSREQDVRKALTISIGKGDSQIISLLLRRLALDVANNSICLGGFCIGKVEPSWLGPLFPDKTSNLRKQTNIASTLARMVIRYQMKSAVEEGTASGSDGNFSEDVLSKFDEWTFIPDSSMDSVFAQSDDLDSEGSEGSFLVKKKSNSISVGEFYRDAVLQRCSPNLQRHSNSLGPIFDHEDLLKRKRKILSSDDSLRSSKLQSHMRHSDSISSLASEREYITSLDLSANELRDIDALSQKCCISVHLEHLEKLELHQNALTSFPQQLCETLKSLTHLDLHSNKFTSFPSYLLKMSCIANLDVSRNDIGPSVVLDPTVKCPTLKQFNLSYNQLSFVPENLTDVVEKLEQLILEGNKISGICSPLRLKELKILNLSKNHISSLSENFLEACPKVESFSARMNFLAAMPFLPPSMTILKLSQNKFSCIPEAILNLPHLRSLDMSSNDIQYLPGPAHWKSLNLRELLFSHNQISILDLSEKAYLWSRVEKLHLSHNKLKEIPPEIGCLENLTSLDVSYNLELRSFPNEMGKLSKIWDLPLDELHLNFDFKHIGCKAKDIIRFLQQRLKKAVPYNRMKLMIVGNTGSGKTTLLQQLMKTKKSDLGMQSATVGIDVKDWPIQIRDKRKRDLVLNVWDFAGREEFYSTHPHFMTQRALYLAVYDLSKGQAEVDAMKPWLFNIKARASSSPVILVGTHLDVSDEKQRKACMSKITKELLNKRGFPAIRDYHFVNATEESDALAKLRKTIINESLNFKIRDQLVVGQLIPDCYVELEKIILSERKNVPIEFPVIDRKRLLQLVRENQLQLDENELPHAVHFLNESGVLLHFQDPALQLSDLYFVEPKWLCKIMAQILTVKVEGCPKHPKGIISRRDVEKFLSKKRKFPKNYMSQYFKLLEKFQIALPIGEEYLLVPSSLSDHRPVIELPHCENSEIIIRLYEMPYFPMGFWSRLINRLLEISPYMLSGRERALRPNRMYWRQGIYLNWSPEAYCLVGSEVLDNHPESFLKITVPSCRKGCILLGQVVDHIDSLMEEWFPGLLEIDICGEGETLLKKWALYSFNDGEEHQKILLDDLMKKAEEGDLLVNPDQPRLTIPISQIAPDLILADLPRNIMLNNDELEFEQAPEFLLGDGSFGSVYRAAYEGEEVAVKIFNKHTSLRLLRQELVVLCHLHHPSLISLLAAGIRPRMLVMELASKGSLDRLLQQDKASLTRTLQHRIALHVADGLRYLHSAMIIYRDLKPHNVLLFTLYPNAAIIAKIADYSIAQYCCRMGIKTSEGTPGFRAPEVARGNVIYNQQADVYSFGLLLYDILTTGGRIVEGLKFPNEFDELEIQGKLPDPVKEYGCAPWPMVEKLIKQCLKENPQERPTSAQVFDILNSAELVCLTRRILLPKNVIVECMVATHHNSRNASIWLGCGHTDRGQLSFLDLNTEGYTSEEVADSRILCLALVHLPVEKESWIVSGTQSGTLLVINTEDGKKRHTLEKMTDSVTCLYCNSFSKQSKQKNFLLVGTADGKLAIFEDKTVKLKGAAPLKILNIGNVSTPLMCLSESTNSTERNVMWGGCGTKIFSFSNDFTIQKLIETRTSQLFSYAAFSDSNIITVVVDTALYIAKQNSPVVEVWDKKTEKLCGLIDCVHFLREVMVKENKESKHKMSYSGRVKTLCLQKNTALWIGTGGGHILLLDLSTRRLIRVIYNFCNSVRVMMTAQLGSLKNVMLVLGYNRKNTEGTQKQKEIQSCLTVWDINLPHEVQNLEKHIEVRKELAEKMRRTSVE
Assay type: biochemical
For `Cc1nn(C)cc1CC(=O)Nc1cc2cc(C3CCN(C4(C)COCC4O)CC3)c(Cl)cc2cn1` (single isomer, unassigned) [Ex-1.40, N-(7-chloro-6-(1-((3R,4R or 3S,4S)-4-hydroxy-3-methyltetrahydrofuran-3-yl)piperidin-4-yl)isoquinolin-3-yl)-2-(1,3-dimethyl-1H-pyrazol-4-yl)acetamide], the IC50 was 0.000112 µM. In the case of `O=C(Nc1cc2cc(C3CCN(C4COCC4O)CC3)c(Cl)cc2cn1)C1CC1` (single isomer, unassigned) [Ex-12.4, N-(7-chloro-6-(1-(4-hydroxytetrahydrofuran-3-yl)piperidin-4-yl)isoquinolin-3-yl)cyclopropanecarboxamide], the IC50 is reported as 0.0661 µM. `O=C(Nc1cc2cc(C3CCN(C4COC4)CC3)c(Cl)cc2cn1)C1CC12CCOCC2` (single isomer, unassigned) [Ex-9.8, N-(7-chloro-6-(1-(oxetan-3-yl)piperidin-4-yl)isoquinolin-3-yl)-6-oxaspiro[2.5]octane-1-carboxamide] showed an IC50 of 0.0191 µM. `Cc1cc2cnc(NC(=O)C3CC3c3ccccn3)cc2cc1C1CCN(C2(C)COCC2O)CC1` (single isomer, unassigned) [Ex-4.78, N-(6-(1-(4-hydroxy-3-methyltetrahydrofuran-3-yl)piperidin-4-yl)-7-methylisoquinolin-3-yl)-2-(pyridin-2-yl)cyclopropane-1-carboxamide] showed an IC50 of 8.13e-05 µM. For `CC1(N2CCC(c3cc4cc(NC(=O)C5CC5C5CCOCC5)ncc4cc3Cl)CC2)COCC1F` (stereo not shown) [Ex-2.92], the IC50 was 8.13e-05 µM. Work on `COC1CC(C(=O)Nc2cc3cc(C4(C#N)CC45CC5)ccc3cn2)C1` (single isomer, unassigned) [Ex-1.4, (1R,3R or 1S,3S)-N-(6-((R or S)-1-cyanospiro[2.2]pentan-1-yl)isoquinolin-3-yl)-3-methoxycyclobutane-1-carboxamide] yielded an IC50 of 0.00363 µM. For `CC1(N2CCC(c3cc4cc(NC(=O)c5cnn(C67CC(C6)C7)c5)ncc4cc3Cl)CC2)COCC1F` (single isomer, unassigned) [Ex-1.53, 1-(bicyclo[1.1.1]pentan-1-yl)-N-(7-chloro-6-(1-((3R,4R or 3S,4S)-4-fluoro-3-methyltetrahydrofuran-3-yl)piperidin-4-yl)isoquinolin-3-yl)-1H-pyrazole-4-carboxamide], the IC50 was 0.000676 µM. Molecule `CC1(c2ccccn2)CC1C(=O)Nc1cc2cc(C3CCN(C4(C)COCC4O)CC3)c(Cl)cc2cn1` (stereo not shown) [Ex-2.90] has an IC50 of 0.0525 µM. In the case of `Cc1cc2cnc(NC(=O)C3CC34CCOC4)cc2cc1C1CCN(C2(C)COCC2F)CC1` (single isomer, unassigned) [Ex-15.7, N-(6-(1-(4-fluoro-3-methyltetrahydrofuran-3-yl)piperidin-4-yl)-7-methylisoquinolin-3-yl)-5-oxaspiro[2.4]heptane-1-carboxamide], the IC50 is reported as 0.00123 µM. `CC1(C)CC(C(=O)Nc2cc3cc(C4CCN(C5(C)COCC5O)CC4)c(Cl)cc3cn2)CCO1` (stereo not shown) [Ex-2.34] was tested, and the IC50 was 0.0017 µM. `N#CC1(c2ccc3cnc(NC(=O)C4CC4)cc3c2)CC12CC2` (single isomer, unassigned) [Ex-18.1, N-(6-(1-cyanospiro[2.2]pentan-1-yl)isoquinolin-3-yl)cyclopropanecarboxamide] was tested, and the IC50 was 0.00229 µM. Molecule `CC(C)OC1CCC(C(=O)Nc2cc3cc(C4CCN(C5(C)COCC5O)CC4)c(Cl)cc3cn2)CO1` (stereo not shown) [Ex-2.27] has an IC50 of 0.000324 µM. For `CC1(C)CC(C(=O)Nc2cc3cc(C4(C#N)CC45CC5)ccc3cn2)CCO1` (stereo not shown) [Ex-2.57], the IC50 was 0.00214 µM. `CCOC1CC2(C1)CC2C(=O)Nc1cc2cc(C3CCN(C4(C)COCC4F)CC3)c(Cl)cc2cn1` (stereo not shown) [Ex-2.82] showed an IC50 of 8.13e-05 µM. Molecule `CC1(N2CCC(c3cc4cc(NC(=O)C5CC(F)(F)C5)ncc4cc3Cl)CC2)COCC1O` (single isomer, unassigned) [Ex-1.18, N-(7-chloro-6-(1-((3R,4R or 3S,4S)-4-hydroxy-3-methyltetrahydrofuran-3-yl)piperidin-4-yl)isoquinolin-3-yl)-3,3-difluorocyclobutane-1-carboxamide] has an IC50 of 0.00135 µM. In the case of `Cc1cc2cnc(NC(=O)C3CC34CCOC4)cc2cc1C1CCN(C2(C)COCC2F)CC1` (single isomer, unassigned) [Ex-15.12, N-(6-(1-(4-fluoro-3-methyltetrahydrofuran-3-yl)piperidin-4-yl)-7-methylisoquinolin-3-yl)-5-oxaspiro[2.4]heptane-1-carboxamide], the IC50 is reported as 0.0851 µM. With `O=C(Nc1cc2cc(C3CCN(C4COC4)CC3)c(Cl)cc2cn1)[C@H]1C[C@@H]1F` (single isomer, unassigned) [Ex-1.7, (1R,3S or 1S,3R)-N-(7-chloro-6-(1-(oxetan-3-yl)piperidin-4-yl)isoquinolin-3-yl)-2-fluorocyclopropane-1-carboxamide] the IC50 was 0.00112 µM. In the case of `CC1(C)CCC(C(=O)Nc2cc3cc(C4CCC(N5CCC(F)C5)CC4)c(Cl)cc3cn2)CO1` (single isomer, unassigned) [Ex-5.21, N-(7-chloro-6-(4-(3-fluoropyrrolidin-1-yl)cyclohexyl)isoquinolin-3-yl)-6,6-dimethyltetrahydro-2H-pyran-3-carboxamide], the IC50 is reported as 3.63 µM. Work on `O=C(Nc1cc2cc(C3C4CCOCC43)c(Cl)cc2cn1)C1CC12CCOCC2` (single isomer, unassigned) [Ex-9.23, N-(6-(3-oxabicyclo[4.1.0]heptan-7-yl)-7-chloroisoquinolin-3-yl)-6-oxaspiro[2.5]octane-1-carboxamide] yielded an IC50 of 0.0191 µM. In the case of `CC(C(=O)Nc1cc2cc(C3(C#N)CC34CC4)ccc2cn1)c1cnn(C)c1` (stereo not shown) [Ex-2.110], the IC50 is reported as 0.000575 µM. For `CC1(N2CCC(c3cc4cc(NC(=O)c5cnn(C67CC(C6)C7)c5)ncc4cc3Cl)CC2)COCC1O` (single isomer, unassigned) [Ex-1.52, 1-(bicyclo[1.1.1]pentan-1-yl)-N-(7-chloro-6-(1-((3R,4R or 3S,4S)-4-hydroxy-3-methyltetrahydrofuran-3-yl)piperidin-4-yl)isoquinolin-3-yl)-1H-pyrazole-4-carboxamide], the IC50 was 0.00162 µM. In the case of `Cn1cc(C(=O)Nc2cc3cc(C4CCN(C5COCC5O)CC4)c(Cl)cc3cn2)cn1` (stereo not shown) [Ex-3.5], the IC50 is reported as 0.000631 µM. Molecule `CC1(N2CCC(c3cc4cc(NC(=O)c5cnn(C6CC6)c5)ncc4cc3Cl)CC2)COCC1O` (single isomer, unassigned) [Ex-1.48, N-(7-chloro-6-(1-((3R,4R or 3S,4S)-4-hydroxy-3-methyltetrahydrofuran-3-yl)piperidin-4-yl)isoquinolin-3-yl)-1-cyclopropyl-1H-pyrazole-4-carboxamide] has an IC50 of 0.055 µM. `CC(C)Cn1nccc1C1CC1C(=O)Nc1cc2cc(C3CCN(C4(C)COCC4O)CC3)c(Cl)cc2cn1` (single isomer, unassigned) [Ex-4.62, N-(7-chloro-6-(1-(4-hydroxy-3-methyltetrahydrofuran-3-yl)piperidin-4-yl)isoquinolin-3-yl)-2-(1-isobutyl-1H-pyrazol-5-yl)cyclopropane-1-carboxamide] gave an IC50 of 81300 µM. `CC1(N2CCC(c3cc4cc(NC(=O)C5CCC5c5ccccn5)ncc4cc3Cl)CC2)COCC1O` (single isomer, unassigned) [Ex-4.73, N-(7-chloro-6-(1-(4-hydroxy-3-methyltetrahydrofuran-3-yl)piperidin-4-yl)isoquinolin-3-yl)-2-(pyridin-2-yl)cyclobutane-1-carboxamide] was tested, and the IC50 was 0.661 µM. `O=C(Nc1cc2cc(C3CCN(C4COC4)CC3)c(Cl)cc2cn1)C1CC1(F)F` (single isomer, unassigned) [Ex-1.5, (R or S)-N-(7-chloro-6-(1-(oxetan-3-yl)piperidin-4-yl)isoquinolin-3-yl)-2,2-difluorocyclopropane-1-carboxamide] showed an IC50 of 0.00589 µM. Molecule `C[C@@]1(N2CCC(c3cc4cc(NC(=O)c5ccn(C6CC6)n5)ncc4cc3Cl)CC2)COC[C@@H]1O` (single isomer, unassigned) [Ex-1.49, N-(7-chloro-6-(1-((3R,4R or 3S,4S)-4-hydroxy-3-methyltetrahydrofuran-3-yl)piperidin-4-yl)isoquinolin-3-yl)-1-cyclopropyl-1H-pyrazole-3-carboxamide] has an IC50 of 0.0389 µM. Work on `Cc1cc2cnc(NC(=O)C3CC4(CC4)C3)cc2cc1C1CCN(C2(C)COCC2O)CC1` (single isomer, unassigned) [Ex-15.2, N-(6-(1-(4-hydroxy-3-methyltetrahydrofuran-3-yl)piperidin-4-yl)-7-methylisoquinolin-3-yl)spiro[2.3]hexane-5-carboxamide] yielded an IC50 of 0.000302 µM. In the case of `CC1(N2CCC(c3cc4cc(NC(=O)[C@@H]5CCCCO5)ncc4cc3Cl)CC2)COCC1O` (single isomer, unassigned) [Ex-1.17, (S)-N-(7-chloro-6-(1-((3R,4R or 3S,4S)-4-hydroxy-3-methyltetrahydrofuran-3-yl)piperidin-4-yl)isoquinolin-3-yl)tetrahydro-2H-pyran-2-carboxamide], the IC50 is reported as 0.000178 µM. With `CC1(N2CCC(c3cc4cc(NC(=O)C5C6CCCOC65)ncc4cc3Cl)CC2)COCC1O` (single isomer, unassigned) [Ex-4.14, N-(7-chloro-6-(1-(4-hydroxy-3-methyltetrahydrofuran-3-yl)piperidin-4-yl)isoquinolin-3-yl)-2-oxabicyclo[4.1.0]heptane-7-carboxamide] the IC50 was 8.13e-05 µM. Work on `O=C(Nc1cc2cc(C3CCC(N4CC(F)C4)CC3)c(Cl)cc2cn1)C1CC1c1ccccn1` (single isomer, unassigned) [Ex-5.1, (1R,2R or 1S,2S)-N-(7-chloro-6-((cis or trans)-4-(3-fluoroazetidin-1-yl)cyclohexyl)isoquinolin-3-yl)-2-(pyridin-2-yl)cyclopropane-1-carboxamide] yielded an IC50 of 0.0525 µM. `Cc1cc2cnc(NC(=O)C3CC3c3ccccn3)cc2cc1C1CCN(C2(C)CCOC2)CC1` (single isomer, unassigned) [Ex-16.12, N-(7-methyl-6-(1-(3-methyltetrahydrofuran-3-yl)piperidin-4-yl)isoquinolin-3-yl)-2-(pyridin-2-yl)cyclopropane-1-carboxamide] showed an IC50 of 8.13e-05 µM. With `CC(C(=O)Nc1cc2cc(C3(C#N)CC34CC4)ccc2cn1)c1cnn(C)c1` (stereo not shown) [Ex-2.111] the IC50 was 0.00224 µM. In the case of `CCC1C(C(=O)Nc2cc3cc(C4CCN(C5(C)COCC5F)CC4)c(Cl)cc3cn2)C1c1ccn(C)n1` (stereo not shown) [Ex-2.86], the IC50 is reported as 8.13e-05 µM.
